pIC50: −log10 of the molar value. Entries after “also recorded” stand apart in the source; their conditions may differ. Read-outs that look alike come from different tables or passages of the source. Where a SMILES comes first, the peptide text is derived from it.
Legend:
[1] = tested on: snake venom metalloproteinase; test: time course of metalloproteinase activity with excess venom (FIG. 2A); type: biochemical; details: inhibitors 100 uM; venom 0.444 mg/mL
Experimental: Substrate for MP was DQ Gelatin and assay run per EnzChek gelatinase assay manufacturers instructions. Venom MP activity was not optimized in initial experiments, but reaction rates were during experiments performed by an independently contracted laboratory. SP assay was performed using Nα-Benzoyl-L-arginine-7-amido-4-methylcoumarin hydrochloride. […] Unless otherwise specified, in the case of my experiments, only crude, unfractionated lyophilized venom purchased from Sigma or the Miami Serpentarium were used. Plate Setup: Manufacturers guidelines (paraphrased herein) were followed unless otherwise specified. Data Analysis: xcel per manufacturers recommendations. MP and SP assays were prepared and plated in the same manner as PLA2 assays except substrates and fluorophores were different. PBS was the buffer in the case of MP and SP assays and absorbance measured at 495 nm. Substrate for MP was DQ Gelatin and assay run per EnzChek gelatinase assay manufacturers instructions except that experiments were run, unconventionally at 37 C to estimate human body temperature and initial experiments for PLA2, MP activity and SP activity were not optimized for screening (e.g. extremely high doses of venom were used—10 mg/mL stock in all cases since the quality of the venom was unknown with final concentration of 0.444 mg/mL in the test wells). SP assay was performed using Na-Benzoyl-L-arginine-7-amido-4-methylcoumarin hydrochloride (Sigma). Specifics of contract laboratory technique vary from the present inventor's initial experiments in terms of venom and substrate optimization, plate size (384 instead of 96), volume and temperature and other factors including different operators such as those described immediately below, performed following the first pilot experiments and subsequently extended by a contract laboratory.
(§9) Screening was carried out for inhibitors of venom sPLA2, MP and SPs. Stock solutions of venom at 10 mg/mL were used without typical dilution for assaying various inhibitors of sPLA2, MP and SPs. The final venom concentration in the assays was very high at 0.444 mg/mL.

E. carinatus venom MP = test: HTS for inhibitors of E. carinatus venom MP; type: biochemical; details: compounds approximately 10 μM/well
Experimental: (§1) Background. Phospholipase A2 (PLA2) catalyzes the hydrolysis of phospholipids at the sn-2 position yielding a free fatty acid and a lysophospholipid. The release of arachidonic acid from membrane phospholipids by PLA is believed to be a key step in the control of eicosanoid production within the cell. The Bee Venom PLA2 Control was a 100 μg/ml solution of bee venom PLA2 is supplied as a positive control in the kit (Abcam kit catalog number ab133089). Substrate for MP was DQ Gelatin and assay run per EnzChek gelatinase assay manufacturers instructions. Venom MP activity was not optimized in initial experiments, but reaction rates were during experiments performed by an independently contracted laboratory. SP assay was performed using Nα-Benzoyl-L-arginine-7-amido-4-methylcoumarin hydrochloride. These kits were stored as specified if stored at −20° C. Unless otherwise specified, in the case of my experiments, only crude, unfractionated lyophilized venom purchased from Sigma or the Miami Serpentarium were used. Plate Setup: Manufacturers guidelines (paraphrased herein) were followed unless otherwise specified. Data Analysis: xcel per manufacturers recommendations. MP and SP assays were prepared and plated in the same manner as PLA2 assays except substrates and fluorophores were different. PBS was the buffer in the case of MP and SP assays and absorbance measured at 495 nm. Substrate for MP was DQ Gelatin and assay run per EnzChek gelatinase assay manufacturers instructions except that experiments were run, unconventionally at 37 C to estimate human body temperature and initial experiments for PLA2, MP activity and SP activity were not optimized for screening (e.g. extremely high doses of venom were used—10 mg/mL stock in all cases since the quality of the venom was unknown with final concentration of 0.444 mg/mL in the test wells). SP assay was performed using Na-Benzoyl-L-arginine-7-amido-4-methylcoumarin hydrochloride (Sigma). Specifics of contract laboratory technique vary from the present inventor's initial experiments in terms of venom and substrate optimization, plate size (384 instead of 96), volume and temperature and other factors including different operators such as those described immediately below, performed following the first pilot experiments and subsequently extended by a contract laboratory.
(§2) Small molecule screening and dose-response experiments took place in the Yale Center for Molecular Discovery. Instrumentation used when indicated included Tecan EVO (2), Tecan Aquarius, Matrix PlateMatePlus (2), Matrix PlateMate2×2 liquid transfer robots and Titertek and Thermo Multidrop liquid dispensers (7). PerkinElmer EnVision (3) and Tecan infinite M1000 (2) plate readers sensitively measure absorbance, fluorescence, fluorescence polarization and luminescence in 96- and 384-well plate formats. A GE InCell Analyzer 2200 imaging system acquires multicolor fluorescent and transmitted light images from plates. Piloting collections used in the first phases of screening were selected by the inventor or from libraries of known compounds and natural products available at the time of experiments on selected venoms including: NCC, GenPlus, Pharmakon, Bioactive lipids, Protease Inhibitors, Procured Drugs and FDA Approved Drugs libraries. The GenPlus (the NINDS Custom Collection) from MicroSource Discovery Systems contains 960 compounds. […]

C. atrox venom MP = test: HTS for inhibitors of C. Atrox venom MP; type: biochemical; details: compounds approximately 10 μM/well
Experimental: as §1, §2

M. fulvius venom PLA2 = test: HTS for inhibitors of M. fulvius venom PLA2; type: biochemical; details: compounds approximately 10 μM/well
bee venom PLA2 = bee venom PLA2 (Apis mellifera, UniProt P00630); type: biochemical
Sequence of bee venom PLA2 (P00630 34-167 limits assumed): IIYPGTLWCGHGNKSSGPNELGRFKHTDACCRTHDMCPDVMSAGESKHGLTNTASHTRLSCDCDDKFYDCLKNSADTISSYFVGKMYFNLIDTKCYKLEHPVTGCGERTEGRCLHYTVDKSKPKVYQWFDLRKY

Vipera berus venom = test: survival of mice given Vipera berus venom (FIG. 9); type: in vivo; details: for survival versus controls: N=7
Text: (§3) V. berus is the most widely distributed viper in the world, ranging across Europe and Eurasia and as far north as the Arctic circle. It elaborates both hemo- and neurotoxins dangerous especially to children, pets and large animals such as horses.

snake venom PLA2 [2] = test: time course of PLA2 activity with excess venom (FIG. 1); type: biochemical; details: inhibitor 100 uM; venom 0.444 mg/mL final; 37 C
Text: Plate Setup: Manufacturers guidelines (paraphrased herein) were followed unless otherwise specified. Data Analysis: xcel per manufacturers recommendations. […] Substrate for MP was DQ Gelatin and assay run per EnzChek gelatinase assay manufacturers instructions except that experiments were run, unconventionally at 37 C to estimate human body temperature and initial experiments for PLA2, MP activity and SP activity were not optimized for screening (e.g. extremely high doses of venom were used—10 mg/mL stock in all cases since the quality of the venom was unknown with final concentration of 0.444 mg/mL in the test wells).
as §9

C. scutulatus venom = test: survival of mice coinjected with C. scutulatus venom (FIG. 7A); type: in vivo; details: coinjected SC with C. scutulatus venom, single dose; N=4
[3] = tested on: Crotalus otrox venom PLA2; test: venom sPLA2 inhibition IC50, varespladib and CroFab alone and together; type: biochemical, Crotalus atrox
Experimental: Background. Phospholipase A2 (PLA2) catalyzes the hydrolysis of phospholipids at the sn-2 position yielding a free fatty acid and a lysophospholipid. The release of arachidonic acid from membrane phospholipids by PLA is believed to be a key step in the control of eicosanoid production within the cell. The Bee Venom PLA2 Control was a 100 μg/ml solution of bee venom PLA2 is supplied as a positive control in the kit (Abcam kit catalog number ab133089). Substrate for MP was DQ Gelatin and assay run per EnzChek gelatinase assay manufacturers instructions. Venom MP activity was not optimized in initial experiments, but reaction rates were during experiments performed by an independently contracted laboratory. SP assay was performed using Nα-Benzoyl-L-arginine-7-amido-4-methylcoumarin hydrochloride. These kits were stored as specified if stored at −20° C. Unless otherwise specified, in the case of my experiments, only crude, unfractionated lyophilized venom purchased from Sigma or the Miami Serpentarium were used. […] PBS was the buffer in the case of MP and SP assays and absorbance measured at 495 nm. […]
(§4) Small molecule screening and dose-response experiments took place in the Yale Center for Molecular Discovery. […] PerkinElmer EnVision (3) and Tecan infinite M1000 (2) plate readers sensitively measure absorbance, fluorescence, fluorescence polarization and luminescence in 96- and 384-well plate formats. […]

D. russelli venom = test: survival of mice given Daboia russelli venom (FIG. 8); type: in vivo; details: varespladib 4 mg/kg SC 60 to 90 minutes before lethal dose of D. russelli venom; N=3
Daboia russelli venom MP = test: metalloproteinase activity over time, Daboia russelli venom (FIG. 2B); type: biochemical; details: 100 uM; venom 0.444 mg/mL
Experimental: Substrate for MP was DQ Gelatin and assay run per EnzChek gelatinase assay manufacturers instructions. Venom MP activity was not optimized in initial experiments, but reaction rates were during experiments performed by an independently contracted laboratory. […] These kits were stored as specified if stored at −20° C. Unless otherwise specified, in the case of my experiments, only crude, unfractionated lyophilized venom purchased from Sigma or the Miami Serpentarium were used. Plate Setup: Manufacturers guidelines (paraphrased herein) were followed unless otherwise specified. Data Analysis: xcel per manufacturers recommendations. MP and SP assays were prepared and plated in the same manner as PLA2 assays except substrates and fluorophores were different. PBS was the buffer in the case of MP and SP assays and absorbance measured at 495 nm. Substrate for MP was DQ Gelatin and assay run per EnzChek gelatinase assay manufacturers instructions except that experiments were run, unconventionally at 37 C to estimate human body temperature and initial experiments for PLA2, MP activity and SP activity were not optimized for screening (e.g. extremely high doses of venom were used—10 mg/mL stock in all cases since the quality of the venom was unknown with final concentration of 0.444 mg/mL in the test wells). […]

[4] = varespladib alone, no venom; N=2
Text: as §3

[5] = tested on: snake venom serine proteases; test: serine protease activity with excess venom (FIG. 3); type: biochemical; details: 100 um; venom 0.444 mg/mL; compared to marimastat and batimastat
Experimental: Substrate for MP was DQ Gelatin and assay run per EnzChek gelatinase assay manufacturers instructions. Venom MP activity was not optimized in initial experiments, but reaction rates were during experiments performed by an independently contracted laboratory. SP assay was performed using Nα-Benzoyl-L-arginine-7-amido-4-methylcoumarin hydrochloride. […] Unless otherwise specified, in the case of my experiments, only crude, unfractionated lyophilized venom purchased from Sigma or the Miami Serpentarium were used. Plate Setup: Manufacturers guidelines (paraphrased herein) were followed unless otherwise specified. Data Analysis: xcel per manufacturers recommendations. MP and SP assays were prepared and plated in the same manner as PLA2 assays except substrates and fluorophores were different. PBS was the buffer in the case of MP and SP assays and absorbance measured at 495 nm. Substrate for MP was DQ Gelatin and assay run per EnzChek gelatinase assay manufacturers instructions except that experiments were run, unconventionally at 37 C to estimate human body temperature and initial experiments for PLA2, MP activity and SP activity were not optimized for screening (e.g. extremely high doses of venom were used—10 mg/mL stock in all cases since the quality of the venom was unknown with final concentration of 0.444 mg/mL in the test wells). […]

M. fulvius venom [6] = test: protection of mice from M. fulvius venom (FIG. 6A-D); type: in vivo
Experimental: (§5) Mice received SC injections of M. fulvius venom at ^˜4 times the expected LD50 (typically estimated to be 1.3 mg/kg SC) (0.1 mg M. fulvius venom/animal for approximate dose of ^˜4 mg/kg). Prior to venom injection animals received either total dose 0.1 mg varespladib exipient (sham treatment) by SC route for calculated concentration of 4 mg/kg varespladib ^˜10-15 minutes before venom administration. Surviving animals were euthanized by CO2 inhalation at the end of experiments and observations periods ranging from ^˜12 hours to as long as 30 hours (survival being designated at 24 hours). […] In mice: Varespladib 4-8 mg/kg subcutaneously or orally with methylvarespladib, taken ad libitum. In rats, varespladib or excipient was administered intravenously at 30 seconds or 5 minutes following subcutaneous administration of venom at 4 or 8 mg/kg. Blood sampling and assay for sPLA2 activity was performed with samples taken from a surgically implanted jugular venous catheter at precise intervals (baseline, 30 minutes, 1 hour and 4 hours).
(§6) 6B Mice fed methylvarespladib or exipient ad libitum in biscuits had high-dose M. fulvius venom administered ^˜5 hours after introduction of the biscuits (N=2 each group). […] 6C Venom and varespladib (4 mg/kg) or venom and excipient were mixed just prior to administration and injected subcutaneously. At 5 hours (300 minutes, down-pointing arrow), surviving animals were retreated with ½ dose varespladib (2 mg/kg) or excipient. […] Mice either received venom and sham/excipient (N=7), methylvarespladib (N=3) or varespladib (N=7) ^˜30 seconds to 1.5 minute following venom administration. […] Confirmatory experiments and results of 6E-H were performed in rats by a contract laboratory to assess expand knowledge of varespladib's capacity to act in therapeutic mode and see if the effects of intravenous administration were similar to subcutaneous administration. 6E and 6F M. fulvius venom was administered subcutaneously (4 mg/kg or 8 mg/kg) and then excipient or varespladib 8 mg/kg was administered at 30 seconds or 5 minutes after envenomation.

M. fulvius venom [7] = test: treatment of rats after M. fulvius venom (FIG. 6E-H); type: in vivo; details: varespladib IV
Experimental: as §5, §6

[8] = tested on: Acanthophis antarcticus venom PLA2; test: venom sPLA2 inhibition IC50, varespladib and CroFab alone and together; type: biochemical
Experimental: as §1
(§7) Small molecule screening and dose-response experiments took place in the Yale Center for Molecular Discovery. Instrumentation used when indicated included Tecan EVO (2), Tecan Aquarius, Matrix PlateMatePlus (2), Matrix PlateMate2×2 liquid transfer robots and Titertek and Thermo Multidrop liquid dispensers (7). PerkinElmer EnVision (3) and Tecan infinite M1000 (2) plate readers sensitively measure absorbance, fluorescence, fluorescence polarization and luminescence in 96- and 384-well plate formats. A GE InCell Analyzer 2200 imaging system acquires multicolor fluorescent and transmitted light images from plates. Piloting collections used in the first phases of screening were selected by the inventor or from libraries of known compounds and natural products available at the time of experiments on selected venoms including: NCC, GenPlus, Pharmakon, Bioactive lipids, Protease Inhibitors, Procured Drugs and FDA Approved Drugs libraries. The GenPlus (the NINDS Custom Collection) from MicroSource Discovery Systems contains 960 compounds. This unique selection of known bioactive compounds permits the simultaneous evaluation of hundreds of marketed drugs and biochemical standards. The Pharmakon 1600 collection (MicroSource) includes known drugs used globally or studied in clinical trials.
(§8) Each assay was characterized in similar fashion, using methodology well-established in the Center. Assays are typically performed in 384-well microtiter plates.

[9] = tested on: Crotalus scutulatus scutulatus venom PLA2; test: as above; type: biochemical
Experimental: as §1, §7, §8

[10] = tested on: Agkistrodon piscivorus venom PLA2; test: as above; type: biochemical
Experimental: as §1, §7, §8

[11] = tested on: Crotalus adamanteus venom PLA2; test: as above; type: biochemical
Experimental: as §1, §7, §8

[12] = tested on: Agkistrodon contortrix venom PLA2; test: as above; type: biochemical
Experimental: as §1, §7, §8

snake venom PLA2 [13] = type: biochemical
Experimental: Background. Phospholipase A2 (PLA2) catalyzes the hydrolysis of phospholipids at the sn-2 position yielding a free fatty acid and a lysophospholipid. The release of arachidonic acid from membrane phospholipids by PLA is believed to be a key step in the control of eicosanoid production within the cell. The Bee Venom PLA2 Control was a 100 μg/ml solution of bee venom PLA2 is supplied as a positive control in the kit (Abcam kit catalog number ab133089). Substrate for MP was DQ Gelatin and assay run per EnzChek gelatinase assay manufacturers instructions. Venom MP activity was not optimized in initial experiments, but reaction rates were during experiments performed by an independently contracted laboratory. SP assay was performed using Nα-Benzoyl-L-arginine-7-amido-4-methylcoumarin hydrochloride. These kits were stored as specified if stored at −20° C. Unless otherwise specified, in the case of my experiments, only crude, unfractionated lyophilized venom purchased from Sigma or the Miami Serpentarium were used. Plate Setup: Manufacturers guidelines (paraphrased herein) were followed unless otherwise specified. Data Analysis: xcel per manufacturers recommendations. MP and SP assays were prepared and plated in the same manner as PLA2 assays except substrates and fluorophores were different. PBS was the buffer in the case of MP and SP assays and absorbance measured at 495 nm. […]
as §4

[14] = varespladib alone, read-out: Varespladib (IC50 nM)
[15] = varespladib and CroFab ® together, read-out: Varespladib IC50 (nM) With CroFab ®

CC(=O)N[C@@H](CS)C(=O)O [NAC, N-Acetyl Cysteine]
inhibition of metalloproteinase activity (time course) [1]: varying levels of MP inhibition

COC(=O)[C@H](Cc1ccccc1)NC(=O)[C@@H](N)CC(=O)O [Aspartame] (H-Asp-Phe-OMe)
% Effect on E. carinatus venom MP (E. carinatus venom MP): 6%
percental (%) reduction of MP activity (C. atrox venom MP): 6.31%

Cc1ccc(C(=O)Nc2ccc(S(=O)(=O)O)c3cc(S(=O)(=O)O)cc(S(=O)(=O)O)c23)cc1NC(=O)c1cccc(NC(=O)Nc2cccc(C(=O)Nc3cc(C(=O)Nc4ccc(S(=O)(=O)O)c5cc(S(=O)(=O)O)cc(S(=O)(=O)O)c45)ccc3C)c2)c1 [Suramin]
% effect (% inhibition) on M. fulvius venom PLA2 (M. fulvius venom PLA2): 21%

CCN(CC)CC(=O)Nc1c(C)cccc1C [Lidocaine]
% effect (% inhibition) on M. fulvius venom PLA2 (M. fulvius venom PLA2): 11%

CCCCC[C@H](CC(=O)NO)C(=O)N[C@H](C(=O)N1CCC[C@H]1CO)C(C)C [Actinonin]
percental (%) reduction of MP activity (C. atrox venom MP): 92%

CCN(CC)CCN(Cc1ccc(-c2ccc(C(F)(F)F)cc2)cc1)C(=O)Cn1c(SCc2ccc(F)cc2)nc(=O)c2c1CCC2 [darapladib]
inhibition of bee venom PLA2 (bee venom PLA2): not inhibited

O=C(CCCCCCC(=O)Nc1ccccc1)NO [Vorinostat]
percental (%) reduction of MP activity (C. atrox venom MP): 42%

CCc1c(C(=O)C(N)=O)c2c(OCC(=O)O)cccc2n1Cc1ccccc1 [Varespladib]
animals that outlived controls (Vipera berus venom; Venom SC followed by Varespladib SC 8 mg/kg): 4 of 5
survival versus controls (Vipera berus venom; lethal venom dose just prior to SC varespladib): outlived controls
animals surviving 24 hours (Vipera berus venom; varespladib IV 8 mg/kg lateral tail vein following venom): 5 of 5
survival versus controls (Vipera berus venom; venom and varespladib injected simultaneously SC): outlived controls
inhibition of snake venom PLA2 activity (time course) (snake venom PLA2 [2]): inhibited PLA2 activity in all snake venoms tested
survival versus venom only controls (C. scutulatus venom): outlived controls
IC50 [3, 14]: 0.32 nM
IC50 [3, 15]: 0.07 nM
survival at 24 hours (D. russelli venom): all survived 24 hours
survival versus controls (D. russelli venom): outlived controls
inhibition of Daboia russelli venom MP over time (Daboia russelli venom MP): comparable inhibition
inhibition of metalloproteinase activity (time course) [1]: showed inhibition of MP activity in several snake venoms
signs of toxicity [4]: no signs of toxicity
inhibitory effects on snake venom serine proteases [5]: unexpected inhibitory effects
mice that died within 8 hours (M. fulvius venom [6]; varespladib 4 mg/kg SC minutes before M. fulvius venom 4 mg/kg SC): 0 of 5
mice survived to the endpoint of 24 hours (M. fulvius venom [6]; {}): 5/5
sPLA2 activity in blood samples (M. fulvius venom [7]; high dose coral snake venom SC, baseline, 30 minutes, 1 hour, 4 hours): dramatic suppression of sPLA2 activity
gross hemolysis in serum samples (M. fulvius venom [7]; venom SC): no or minimally visible hemolysis
pulmonary hemorrhage at necropsy (M. fulvius venom [7]; venom SC): either no or minimal pulmonary hemorrhage
IC50 [8, 14]: 0.74 nM
IC50 [8, 15]: 0.43 nM
IC50 [9, 14]: 1.51 nM
IC50 [9, 15]: 0.82 nM
IC50 [10, 14]: 0.28 nM
IC50 [10, 15]: 0.05 nM
IC50 [11, 14]: 0.25 nM
IC50 [11, 15]: 0.05 nM
IC50 [12, 14]: 0.22 nM
IC50 [12, 15]: 0.045 nM
inhibition of bee venom PLA2 (bee venom PLA2): not inhibited; also recorded: only a modest effect
inhibition of snake venom PLA2 in vitro (snake venom PLA2 [13]): inhibited snake venom PLA2; also recorded: inhibited the measured sPLA2 activity of several medically important snake venoms
pIC50 (snake venom PLA2 [13]; read-out: IC50s specific for snake venoms, lowest value): ≤ 10.30
